In patent publication US20260053932A1, “COMPOUNDS AND METHODS FOR THE TARGETED DEGRADATION OF ANDROGEN RECEPTOR AND ASSOCIATED METHODS OF USE” (Arvinas Operations, Inc., priority 2020, published 2026):

These molecules were tested on androgen receptor (AR) in LNCaP and/or VCaP cells (assay: Androgen Receptor ELISA assay (AR degradation)). Conditions: LNCaP and/or VCaP cells; 5 hours incubation; media with R1881; read-out: DC50 Code* (degradation of AR ELISA).
Assay type: cell-based
Summary of the method: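 VCaP cells grown ≥3 days, then treated 5 h with compound in media containing 1 nM R1881 (10× stock). Cells lysed and AR quantified by sandwich ELISA (mouse AR detection Ab, HRP anti-mouse, TMB). DC50 and Dmax derived from AR degradation.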

DC50 [nM]	SMILES
< 1	COc1cc(O[C@H]2C[C@H](N(CC3CCN(c4cnc(C(=O)N[C@H]5CC[C@H](Oc6cc(C)c(C#N)c(C)c6)CC5)cn4)CC3)C(C)=O)C2)cc2c1C(=O)N(C1CCC(=O)NC1=O)C2=O (stereo partly shown) [Compound 23, N-((1r,4r)-4-(4-cyano-3,5-dimethylphenoxy)cyclohexyl)-5-(4-((N-((1r,3r)-3-((2-(2,6-dioxopiperidin-3-yl)-7-methoxy-1,3-dioxoisoindolin-5-yl)oxy)cyclobutyl)acetamido)methyl)piperidin-1-yl)pyrazine-2-carboxamide]
1 to 10	N#Cc1ccc(O[C@H]2CC[C@H](NC(=O)c3ccn(C4CCC(CN5CCN(c6ccc7c(c6)CN(C6CCC(=O)NC6=O)C7=O)CC5)CC4)n3)CC2)cc1Cl (stereo partly shown) [Compound 71, N-((1r,4r)-4-(3-chloro-4-cyanophenoxy)cyclohexyl)-1-(4-((4-(2-(2,6-dioxopiperidin-3-yl)-1-oxoisoindolin-5-yl)piperazin-1-yl)methyl)cyclohexyl)-1H-pyrazole-3-carboxamide]
< 1	CC(C)N(CC1CCN(c2cnc(C(=O)N[C@H]3CC[C@H](Oc4ccc(C#N)c(Cl)c4)CC3)cn2)CC1)[C@H]1C[C@H](Oc2ccc3c(c2F)C(=O)N(C2CCC(=O)NC2=O)C3=O)C1 (stereo partly shown) [Compound 52, N-((1r,4r)-4-(3-chloro-4-cyanophenoxy)cyclohexyl)-5-(4-((((1r,3r)-3-((2-(2,6-dioxopiperidin-3-yl)-4-fluoro-1,3-dioxoisoindolin-5-yl)oxy)cyclobutyl) (isopropyl)amino)methyl)piperidin-1-yl)pyrazine-2-carboxamide]
< 1	N#Cc1ccc(O[C@H]2CC[C@H](NC(=O)c3ccc(N4CCC(CN5CCN(c6ccc7c(c6F)C(=O)N(C6CCC(=O)NC6=O)C7=O)CC5)CC4)nn3)CC2)cc1Cl (stereo partly shown) [Compound 49]
< 1	N#Cc1ccc(O[C@H]2CC[C@H](NC(=O)c3cnc(N4CCC(CN(CC5COC5)[C@H]5C[C@H](Oc6ccc7c(c6)C(=O)N(C6CCC(=O)NC6=O)C7)C5)CC4)cn3)CC2)cc1Cl (stereo partly shown) [Compound 48, N-((1r,4r)-4-(3-chloro-4-cyanophenoxy)cyclohexyl)-5-(4-((((1r,3r)-3-((2-(2,6-dioxopiperidin-3-yl)-3-oxoisoindolin-5-yl)oxy)cyclobutyl)(oxetan-3-ylmethyl)amino)methyl)piperidin-1-yl)pyrazine-2-carboxamide]

Same assay, conditions: degradation of AR ELISA in LNCaP and/or VCaP cells; Table 2C; read-out: DC50 Code*

DC50 [nM]	SMILES
< 1	Cc1cc(O[C@H]2C(C)(C)[C@H](NC(=O)c3cnc(N4CCC(CN5CC(Oc6ccc7c(c6)C(=O)N(C6CCC(=O)NC6=O)C7=O)C5)CC4)cn3)C2(C)C)cc(C)c1C#N (stereo partly shown) [compound 99, N-((1r,3r)-3-(4-cyano-3,5-dimethylphenoxy)-2,2,4,4-tetramethylcyclobutyl)-5-(4-((3-((2-(2,6-dioxopiperidin-3-yl)-1,3-dioxoisoindolin-5-yl)oxy)azetidin-1-yl)methyl)piperidin-1-yl)pyrazine-2-carboxamide]
1 to 10	COc1cc(O[C@H]2C[C@H](N(CC(F)F)CC3CCN(c4ccc(C(=O)N[C@H]5C(C)(C)[C@H](Oc6ccc(C#N)c(Cl)c6)C5(C)C)cc4)CC3)C2)cc2c1C(=O)N(C1CCC(=O)NC1=O)C2=O (stereo partly shown) [compound 136, N-((1r,3r)-3-(3-chloro-4-cyanophenoxy)-2,2,4,4-tetramethylcyclobutyl)-4-(4-(((2,2-difluoroethyl)((1r,3r)-3-((2-(2,6-dioxopiperidin-3-yl)-7-methoxy-1,3-dioxoisoindolin-5-yl)oxy)cyclobutyl)amino)methyl)piperidin-1-yl)benzamide]
< 1	CC(C)N(CC1CCN(c2ncc(C(=O)N[C@H]3C(C)(C)[C@H](Oc4ccc(C#N)c(C#N)c4)C3(C)C)cn2)CC1)[C@H]1C[C@H](Oc2ccc3c(c2)C(=O)N(C2CCC(=O)NC2=O)C3=O)C1 (stereo partly shown) [compound 108, N-((1r,3r)-3-(3,4-dicyanophenoxy)-2,2,4,4-tetramethylcyclobutyl)-2-(4-((((1r,3r)-3-((2-(2,6-dioxopiperidin-3-yl)-1,3-dioxoisoindolin-5-yl)oxy)cyclobutyl) (isopropyl)amino)methyl)piperidin-1-yl)pyrimidine-5-carboxamide]
< 1	Cc1cc(O[C@H]2C(C)(C)[C@H](NC(=O)c3ccc(N4CCC5(CC4)CN([C@H]4C[C@H](Oc6ccc7c(c6)C(=O)N(C6CCC(=O)NC6=O)C7=O)C4)CCO5)cc3)C2(C)C)cc(C)c1C#N (mixture of isomers) [compound 228, rac-N-((1r,3r)-3-(4-cyano-3,5-dimethylphenoxy)-2,2,4,4-tetramethylcyclobutyl)-4-(4-((1r,3r)-3-((2-(2,6-dioxopiperidin-3-yl)-1,3-dioxoisoindolin-5-yl)oxy)cyclobutyl)-1-oxa-4,9-diazaspiro[5.5]undecan-9-yl)benzamide]
< 1	COc1cc(O[C@H]2C[C@H](N(CC3(F)CCN(c4ncc(C(=O)N[C@H]5C(C)(C)[C@H](Oc6cc(C)c(C#N)c(C)c6)C5(C)C)cn4)CC3)C(C)C)C2)cc2c1C(=O)N(C1CCC(=O)NC1=O)C2=O (stereo partly shown) [compound 231, N-((1r,3r)-3-(4-cyano-3,5-dimethylphenoxy)-2,2,4,4-tetramethylcyclobutyl)-2-(4-((((1r,3r)-3-((2-(2,6-dioxopiperidin-3-yl)-7-methoxy-1,3-dioxoisoindolin-5-yl)oxy)cyclobutyl) (isopropyl)amino)methyl)-4-fluoropiperidin-1-yl)pyrimidine-5-carboxamide]
1 to 10	COc1cc(O[C@H]2C(C)(C)[C@H](NC(=O)c3cnc(N4CCC(CN(CC(F)F)[C@H]5C[C@H](Oc6cc(OC)c7c(c6)C(=O)N(C6CCC(=O)NC6=O)C7=O)C5)CC4)cn3)C2(C)C)ccc1C#N (stereo partly shown) [compound 135, N-((1r,3r)-3-(4-cyano-3-methoxyphenoxy)-2,2,4,4-tetramethylcyclobutyl)-5-(4-(((2,2-difluoroethyl)((1r,3r)-3-((2-(2,6-dioxopiperidin-3-yl)-7-methoxy-1,3-dioxoisoindolin-5-yl)oxy)cyclobutyl)amino)methyl)piperidin-1-yl)pyrazine-2-carboxamide]
< 1	CCOc1cc(O[C@H]2C(C)(C)[C@H](NC(=O)c3ccc(N4CC(CN(C(C)C)[C@H]5C[C@H](Oc6ccc7c(c6)C(=O)N(C6CCC(=O)NC6=O)C7=O)C5)C4)cc3)C2(C)C)ccc1C#N (stereo partly shown) [compound 217, N-((1r,3r)-3-(4-cyano-3-ethoxyphenoxy)-2,2,4,4-tetramethylcyclobutyl)-4-(3-((((1r,3r)-3-((2-(2,6-dioxopiperidin-3-yl)-1,3-dioxoisoindolin-5-yl)oxy)cyclobutyl) (isopropyl)amino)methyl)azetidin-1-yl)benzamide]

SMILES	DC50 [nM]
Cc1cc(O[C@H]2C(C)(C)[C@H](NC(=O)c3ccc(N4CCC(O[C@H]5C[C@H](Oc6ccc7c(c6)C(=O)N(C6CCC(=O)NC6=O)C7=O)C5)CC4)cc3)C2(C)C)cc(C)c1C#N (mixture of isomers) [compound 178, N-((1r,3r)-3-(4-cyano-3,5-dimethylphenoxy)-2,2,4,4-tetramethylcyclobutyl)-4-(4-((1r,3r)-3-((2-(2,6-dioxopiperidin-3-yl)-1,3-dioxoisoindolin-5-yl)oxy)cyclobutoxy)piperidin-1-yl)benzamide]	< 1
